Key:
microbes of dry skin = test: Microbiome balance model, dry skin mixture: total of all microbes; format: cell-based; conditions: 4 h at 37° C.
Experimental: (§1) Preferably, the difference in total number of said at least two, preferably all microbes, compared to the respective total number in the absence of 1,3-propanediol (i.e. the control), after 4 h of incubation at 37° C., is within a range of ±50%, preferably ±40%, more preferably ±15%, most preferably ±10%.
(§2) The ‘not unproportionally affected growth’ can also be assessed by determining an overall impact value, by • (1) assessing the impact of the ingredient on the individual microbe (i) and assigning an individual impact value x′(i) to said microbe as outlined below: • [formula] • If x(i) is • a) ≤ 0.1 then an integer x′(i) of 1 is assigned (no impact) • b) >0.1 ≤ 0.5then an integer x′(i) of 2 is assigned (slight impact) • c) > 0.5 then an integer x′(i) of 3 is assigned (significant impact), followed by • (2) assessing the overall effect of the ingredient on the respective microbiome by calculating the overall impact value y with formula (II) • [formula] • with n being the total number of microbes in the respective microbiota, wherein a good balancing is characterized by an overall impact value y of less than 2, preferably less than 1.75, most preferably less than 1.7.
(§3) 5 mL of TSB (Tryptic Say Broth) to which no (Ref.1) or 500 µL of 2 wt.-% of 1,3-propanediol (1,3-PDO) in PBS (Phosphate-buffered saline) have been added. Then this solutions have been inoculated by 500 µL of the respective calibrated mixture of the microbes as outlined below. Directly after inoculation and/or after 4 hours of incubation at 37° C., 100 µL have been taken and plated on an Agar gel petri dish. The microbes have then been counted based on the colony specific morphology and/or size.
(§4) All shares have been rounded.

M. globosa [1] = test: Microbiome balance model, dry skin mixture: M. globosa; format: cell-based, Malassezia globosa; conditions: 4 h at 37° C.
Experimental: (§5) Thus, in particular the term ‘by not unproportionally affecting the growth of anyone thereof’ refers to a balancing of at least two, preferably all dry skin or sebaceous skin microbes as defined herein in the mutual presence thereof, wherein only small changes in the difference in the (individual) shares of the microbes compared to the corresponding shares of the control are observed. Preferably, the small changes in the (individual) share (after 4 h of incubation at 37° C.) is less than ±15%, in particular less than ±10%, most in particular less than ±7.5%, compared to the control. Said change in the share is calculated as: share of the respective microbe within the group of at least two, preferably all microbes of dry or sebaceous skin in the presence of 1,3-PDO [%] minus share of the same microbe within the same group of microbes in the absence of 1,3-PDO [%], both after 4 h of incubation at 37° C. as illustrated in the example.
as §2, §3, §4

M. globosa [2] = test: Microbiome balance model, sebaceous skin mixture: M. globosa; format: cell-based, Malassezia globosa; conditions: 4 h at 37° C.
Experimental: as §5, §2, §3, §4

S. mitis [3] = test: Microbiome balance model, dry skin mixture: S. mitis; format: cell-based, Streptococcus mitis; conditions: 4 h at 37° C.
Experimental: as §5, §2, §3, §4

C.simulans = test: Microbiome balance model, sebaceous skin mixture: C. simulans; format: cell-based, Corynebacterium simulans; conditions: 4 h at 37° C.
Experimental: as §5, §2, §3, §4

S. epidermidis [4] = test: Microbiome balance model, S. epidermidis/S. aureus co-culture: S. epidermidis; format: cell-based, Staphylococcus epidermidis; conditions: co-culture with S. aureus
Experimental: (§6) The term ‘share’ as used herein refers to the share of each (individual) microbe, based on the total number of microbes in the respective group of microbes in % (i.e. the at least two, preferably all dry or sebaceous skin microbes as defined herein, respectively S. epidermidis and ), either before or after inoculation (as indicated). The share is calculated using the colony count of the respective (individual) microbe divided by the sum of the colony counts of all microbes of the respective microbiota * 100%.
as §3, §4

P. acnes = test: Microbiome balance model, dry skin mixture: P. acnes; format: cell-based, Cutibacterium acnes; conditions: 4 h at 37° C.
Experimental: as §5, §2, §3, §4

S. capitis = test: Microbiome balance model, sebaceous skin mixture: S. capitis; format: cell-based, Staphylococcus capitis; conditions: 4 h at 37° C.
Experimental: as §5, §2, §3, §4

E. coli = conditions: known; cited from earlier work
S. mitis [5] = test: Microbiome balance model, sebaceous skin mixture: S. mitis; format: cell-based, Streptococcus mitis; conditions: 4 h at 37° C.
Experimental: as §5, §2, §3, §4

S. aureus [6] = test: Microbiome balance model, S. epidermidis/S. aureus co-culture: S. aureus; format: cell-based, Staphylococcus aureus; conditions: co-culture with S. epidermidis
Experimental: as §6, §3, §4

S. aureus [7] = conditions: known; cited from earlier work
S. epidermidis [8] = test: Microbiome balance model, sebaceous skin mixture: S. epidermidis; format: cell-based, Staphylococcus epidermidis
Experimental: as §5, §2, §3, §4

S. oralis = test: Microbiome balance model, dry skin mixture: S. oralis; format: cell-based, Streptococcus oralis; conditions: 4 h at 37° C.
Experimental: as §5, §2, §3, §4

[9] = system: microbes of sebaceous skin; test: Microbiome balance model, sebaceous skin mixture: total of all microbes; format: cell-based; conditions: 4 h at 37° C.
Experimental: as §1, §2, §3, §4

C. acnes = test: Microbiome balance model, sebaceous skin mixture: C. acnes; format: cell-based, Cutibacterium acnes; conditions: 4 h at 37° C.
Experimental: as §5, §2, §3, §4

M. luteus = test: Microbiome balance model, dry skin mixture: M. luteus; format: cell-based, Micrococcus luteus; conditions: 4 h at 37° C.
Experimental: as §5, §2, §3, §4

C. tuberculostearicum = test: Microbiome balance model, dry skin mixture: C. tuberculostearicum; format: cell-based, Corynebacterium tuberculostearicum; conditions: 4 h at 37° C.
Experimental: as §5, §2, §3, §4

S. hominis = test: Microbiome balance model, sebaceous skin mixture: S. hominis; format: cell-based, Staphylococcus hominis
Experimental: as §5, §2, §3, §4

[10] = after 4 hours of incubation at 37° C.
[11] = directly after inoculation, 500 µL of 2 wt.-% in PBS in 5 mL TSB

## 1,3-Propanediol [1,3-PDO]
Microbes of dry skin
  Change of total CFU/ml vs control: +38%^2
  Total counts of colony: 21082 CFU/ml
  overall impact value: 1.7^4
M. globosa [1]
  M. globosa change in share vs control: -6%^1
  M. globosa counts of colony: 3800 CFU/ml
  M. globosa share: 18%
  M. globosa valuation, impact value x(i)′: 1^3 (≤ 0.1 then an integer x′(i) of 1 is assigned (no impact))
M. globosa [2]
  M. globosa change in share vs control: -4%^1
  M. globosa counts of colony: 2900 CFU/ml
  M. globosa share: 27%
  M. globosa valuation, impact value x(i)′: 2^3 (>0.1 ≤ 0.5then an integer x′(i) of 2 is assigned (slight impact))
S. mitis [3]
  S. mitis change in share vs control: +6%^1
  S. mitis counts of colony: 6600 CFU/ml
  S. mitis share: 31%
  S. mitis valuation, impact value x(i)′: 3^3 (> 0.5 then an integer x′(i) of 3 is assigned (significant impact))
C.simulans
  C.simulans counts of colony: 627 CFU/ml
  C.simulans share: 6%
  C.simulans valuation, impact value x(i)′: 1^3 (≤ 0.1 then an integer x′(i) of 1 is assigned (no impact))
S. epidermidis [4]; [10]
  CSE4h counts of colony of S. epidermidis: 170 CFU/ml
  CSE4h share of S. epidermidis: 77%
S. epidermidis [4]; directly after inoculation
  CSE0 share of S. epidermidis: 89%
S. epidermidis [4]; [11]
  CSE0 counts of colony of S. epidermidis: 235 CFU/ml
S. epidermidis [4]; t = 0 vs t = 4 h
  share of S. epidermidis, effect in words: significantly altered
P. acnes
  P. acnes change in share vs control: -4%^1
  P. acnes counts of colony: 3200 CFU/ml
  P. acnes share: 15%
  P. acnes valuation, impact value x(i)′: 1^3 (≤ 0.1 then an integer x′(i) of 1 is assigned (no impact))
S. capitis
  S. capitis counts of colony: 664 CFU/ml
  S. capitis share: 6%
  S. capitis valuation, impact value x(i)′: 2^3 (>0.1 ≤ 0.5then an integer x′(i) of 2 is assigned (slight impact))
E. coli
  antimicrobial effect on E. coli: antimicrobial effect
S. mitis [5]
  S. mitis change in share vs control: -2%^1
  S. mitis counts of colony: 1300 CFU/ml
  S. mitis share: 12%
  S. mitis valuation, impact value x(i)′: 2^3 (>0.1 ≤ 0.5then an integer x′(i) of 2 is assigned (slight impact))
S. aureus [6]; [10]
  CSA4h counts of colony of S. aureus: 50 CFU/ml
  CSA4h share of S. aureus: 23%
S. aureus [6]; directly after inoculation
  CSA0 share of S. aureus: 11%
S. aureus [6]; [11]
  CSA0 counts of colony of S. aureus: 30 CFU/ml
S. aureus [7]
  antimicrobial effect on S. aureus: antimicrobial effect
S. epidermidis [8]
  growth of S. epidermidis compared to the control, in words: increased
S. epidermidis [8]; 4 h at 37° C.
  S. epidermidis change in share vs control: +5%^1
  S. epidermidis counts of colony: 2255 CFU/ml
  S. epidermidis share: 21%
  S. epidermidis valuation, impact value x(i)′: 2^3 (>0.1 ≤ 0.5then an integer x′(i) of 2 is assigned (slight impact))
S. oralis
  S. oralis change in share vs control: +5%^1
  S. oralis counts of colony: 5700 CFU/ml
  S. oralis share: 27%
  S. oralis valuation, impact value x(i)′: 3^3 (> 0.5 then an integer x′(i) of 3 is assigned (significant impact))
[9]
  Change of total CFU/ml vs control: -7%^2
  Total counts of colony: 10783 CFU/ml
  Total share: 100%
  overall impact value y: 1.6^4
C. acnes
  C. acnes change in share vs control: +1%^1
  C. acnes counts of colony: 2664 CFU/ml
  C. acnes share: 25%
  C. acnes valuation, impact value x(i)′: 1^3 (≤ 0.1 then an integer x′(i) of 1 is assigned (no impact))
M. luteus
  M. luteus change in share vs control: -1%^1
  M. luteus counts of colony: 873 CFU/ml
  M. luteus share: 4%
  M. luteus valuation, impact value x(i)′: 1^3 (≤ 0.1 then an integer x′(i) of 1 is assigned (no impact))
C. tuberculostearicum
  C. tuberculostearicum change in share vs control: -1%^1
  C. tuberculostearicum counts of colony: 909 CFU/ml
  C. tuberculostearicum share: 4%
  C. tuberculostearicum valuation, impact value x(i)′: 1^3 (≤ 0.1 then an integer x′(i) of 1 is assigned (no impact))
S. hominis
  growth of S. hominis compared to the control, in words: increased
S. hominis; 4 h at 37° C.
  S. hominis counts of colony: 373 CFU/ml
  S. hominis share: 3%
  S. hominis valuation, impact value x(i)′: 1^3 (≤ 0.1 then an integer x′(i) of 1 is assigned (no impact))

Reference: US20230301885A1, “NOVEL USE” (DSM IP ASSETS B.V., priority 2020, published 2023)
